Experimental data published in patent US20230172849A1, “INHALED STATINS FOR TREATMENT OF VIRAL RESPIRATORY DISEASES” (priority 2020, published 2023).
pKd: −log10 of the molar value. “Also recorded” adds a separate entry of the source. Structures can show the parent of a compound that is named as a salt. Where two headings read alike, the source gives them in different places.

What was measured:
[1] = biological target: SARS-CoV-2 Spike S1 (RBD) (Severe acute respiratory syndrome coronavirus 2, UniProt P0DTC2); assay: biochemical; type: binding; conditions: for Kd: read-out: Affinity (nM) of binding to SARS-COV2 Spike protein
SARS-CoV-2 [2] = assay: combination therapy, viral load by RT-PCR (ORF1ab gene) in Calu-3 cells; type: cell-based; design: key to enhanced decrease of viral load, combination vs two single agents: Each combination that showed an enhanced decrease of viral load as compared with the two single agents is denoted by “E”; Combinations that showed a slight trend towards an enhanced decrease of viral load as compared with the two single agents is denoted by “(e)”; —; conditions: for decrease of viral load, agent alone: FIG. 31, mixed with SARS-CoV-2 (MOI 0.01) 1 hour at room temperature, RT-PCR (ORF1ab) 24 hours post infection, of the control
SARS-CoV-2 [3] = type: cell-based
[4] = system: human bronchial epithelial cells (HBE1); assay: depletion of total cellular cholesterol in HBE1 cells; type: cell-based; conditions: HBE1, 48 hours; 50-400 nM and 1-20 μM; concentrations marked (*) in FIGS. 1, 2; p<0.05
Protocol: Total cellular cholesterol was measured by spectrophotometry, and plotted as the ratio of absorbance to total protein in μg. […] Significant reductions in cholesterol content (≥50%, p<0.05) are indicated (*).

Which “binding to SARS-COV-2 S-protein (in words)” value (shortened to “binding”) ([1]; MST binding assay) does the source give for Hydroxy Simvastatin [INS102-S] here?
Its value is “weak binding”.

Which “binding” value ([1]; MST binding assay) does the source give for C[C@H](N[C@@H](CCc1ccccc1)C(=O)O)C(=O)N1CCC[C@H]1C(=O)O [INS107] here?
Its value is “no binding is indicated”.

Which “decrease of viral load, agent alone” value (SARS-CoV-2 [2]) does the source give for C[C@@H]1C[C@H]2[C@@H]3CCC4=CC(=O)C=C[C@]4(C)[C@@]3(F)[C@@H](O)C[C@]2(C)[C@@]1(O)C(=O)CO [Dexamethasone, dexamethasone] here?
Its value is 46%.

CC[C@H](C)C(=O)O[C@H]1C[C@H](O)C=C2C=C[C@H](C)[C@H](CC[C@@H](O)C[C@@H](O)CC(=O)O)[C@H]21 [INS101, Pravastatin Sodium] was tested. Which “binding” value ([1]; MST binding assay) did it give?
The value was “weak binding; also recorded: none or very low affinity”.

What about the Remarks ([1]; Table 1, binding to SARS-CoV-2 S1) of the same compound?
Its Remarks is “No interaction/weak binder”.

CC(C)c1c(C(=O)Nc2ccccc2)c(-c2ccccc2)c(-c2ccc(F)cc2)n1CC[C@@H](O)C[C@@H](O)CC(=O)O [INS104, Atorvastatin] was tested. Which pKd [1] did it give?
The pKd was 6.34 to 6.63.

What about the Remarks [1] of the same compound?
The Remarks was “Strong Binding”.

And the S/N [1]?
The S/N was 8.5-8.7.

What about the “binding” value [1] of the same compound?
Its value is “bind with SARS-COV-2 S-protein at nanomolar (nM) concentrations”.

And the Kd [1]?
The Kd was 234 to 456 nM.

What about the “decrease of viral load, agent alone” value (SARS-CoV-2 [2]) of the same compound?
The value was 22%.

And the “decrease in viral load, combination with remdesivir or dexamethasone vs monotherapies” value (SARS-CoV-2 [2]; FIGS. 30, 31, statin and SARS-CoV-2 (MOI 0.01) mixed 1 hour at room temperature, 24 hours post infection)?
Its value is “synergistic”.

And the “enhanced decrease of viral load, combination vs two single agents” value (shortened to “enhanced decrease of viral load”) (SARS-CoV-2 [2]; statin 0.2 μM + Dex 0.1 μM)?
Its value is “—”.

And the “enhanced decrease of viral load” value (SARS-CoV-2 [2]; statin 0.2 μM + Dex 1 μM)?
The value was “(e)”.

What about the “enhanced decrease of viral load” value (SARS-CoV-2 [2]; statin 0.2 μM + Dex 10 μM) of the same compound?
Its value is “—”.

And the “enhanced decrease of viral load” value (SARS-CoV-2 [2]; statin 0.2 μM + Remde 1)?
The value was “—”.

What about the “enhanced decrease of viral load” value (SARS-CoV-2 [2]; statin 0.2 μM + Remde 10) of the same compound?
The value was “—”.

And the “enhanced decrease of viral load” value (SARS-CoV-2 [2]; statin 0.2 μM + Remde 100)?
The value was “(e)”.

What about the “enhanced decrease of viral load” value (SARS-CoV-2 [2]; statin 1 μM + Dex 0.1 μM) of the same compound?
Its value is “—”.

What about the “enhanced decrease of viral load” value (SARS-CoV-2 [2]; statin 1 μM + Dex 1 μM) of the same compound?
Its value is “E”.

And the “enhanced decrease of viral load” value (SARS-CoV-2 [2]; statin 1 μM + Dex 10 μM)?
Its value is “(e)”.

What about the “enhanced decrease of viral load” value (SARS-CoV-2 [2]; statin 1 μM + Remde 1) of the same compound?
Its value is “—”.

And the “enhanced decrease of viral load” value (SARS-CoV-2 [2]; statin 1 μM + Remde 10)?
The value was “(e)”.

And the “enhanced decrease of viral load” value (SARS-CoV-2 [2]; statin 1 μM + Remde 100)?
Its value is “—”.

What about the “enhanced decrease of viral load” value (SARS-CoV-2 [2]; statin 5 μM + Dex 0.1 μM) of the same compound?
The value was “—”.

And the “enhanced decrease of viral load” value (SARS-CoV-2 [2]; statin 5 μM + Dex 1 μM)?
Its value is “synergistic enhancement and E”.

And the “enhanced decrease of viral load” value (SARS-CoV-2 [2]; statin 5 μM + Dex 10 μM)?
The value was “enhancement was maintained at a lower level and E”.

And the “enhanced decrease of viral load” value (SARS-CoV-2 [2]; statin 5 μM + Remde 1)?
Its value is “—”.

What about the “enhanced decrease of viral load” value (SARS-CoV-2 [2]; statin 5 μM + Remde 10) of the same compound?
Its value is “enhancement in the decrease of viral load and E”.

And the “enhanced decrease of viral load” value (SARS-CoV-2 [2]; statin 5 μM + Remde 100)?
The value was “—”.

How did the Kd ([1]; Table 2) turn out when CC[C@H](C)C(=O)O[C@H]1C[C@@H](C)C=C2C=C[C@H](C)[C@H](CC[C@@H]3C[C@@H](O)CC(=O)O3)[C@H]21 [INS105, Lovastatin] was run?
The Kd was 529 to 929 nM.

Which “Average (percent cell viability)” value (SARS-CoV-2 [3]; Case A: compound added 1 h after infection, 72 h contact, 0.1 uM) does the source give for CCC(C)(C)C(=O)O[C@H]1C[C@@H](C)C=C2C=C[C@H](C)[C@H](CC[C@@H]3C[C@@H](O)CC(=O)O3)[C@H]21 [INS102, Simvastatin] here?
The value was 5.506%.

And the “Average (percent cell viability)” value (SARS-CoV-2 [3]; Case A: compound added 1 h after infection, 72 h contact, 1 uM)?
Its value is 7.304%.

And the “Average (percent cell viability)” value (SARS-CoV-2 [3]; Case A: compound added 1 h after infection, 72 h contact, 10 uM)?
Its value is 17.48%.

And the “Average (percent cell viability)” value (SARS-CoV-2 [3]; Case B: compound added 24 h after infection, 48 h contact, 0.1 uM)?
The value was 6.427%.

And the “Average (percent cell viability)” value (SARS-CoV-2 [3]; Case B: compound added 24 h after infection, 48 h contact, 1 uM)?
The value was 9.597%.

What about the “Average (percent cell viability)” value (SARS-CoV-2 [3]; Case B: compound added 24 h after infection, 48 h contact, 10 uM) of the same compound?
The value was 11.85%.

And the “Average (percent cell viability)” value (SARS-CoV-2 [3]; Case C: compound added 48 h after infection, 24 h contact, 0.1 uM)?
The value was 3.967%.

What about the “Average (percent cell viability)” value (SARS-CoV-2 [3]; Case C: compound added 48 h after infection, 24 h contact, 1 uM) of the same compound?
The value was 2.16%.

What about the “Average (percent cell viability)” value (SARS-CoV-2 [3]; Case C: compound added 48 h after infection, 24 h contact, 10 uM) of the same compound?
Its value is 6.117%.

And the “Average (percent cell viability)” value (SARS-CoV-2 [3]; Case D: pre-treated 6 h, then infected 72 h, 0.1 uM)?
The value was 35.26%.

And the “Average (percent cell viability)” value (SARS-CoV-2 [3]; Case D: pre-treated 6 h, then infected 72 h, 1 uM)?
The value was 31.9%.

What about the “Average (percent cell viability)” value (SARS-CoV-2 [3]; Case D: pre-treated 6 h, then infected 72 h, 10 uM) of the same compound?
The value was 33.31%.

What about the “Average (percent cell viability)” value (SARS-CoV-2 [3]; Case E: pre-treated 24 h, then infected 72 h, 0.1 uM) of the same compound?
Its value is −0.98%.

What about the “Average (percent cell viability)” value (SARS-CoV-2 [3]; Case E: pre-treated 24 h, then infected 72 h, 1.0 uM) of the same compound?
Its value is 29.28%.

And the “Average (percent cell viability)” value (SARS-CoV-2 [3]; Case E: pre-treated 24 h, then infected 72 h, 10.0 uM)?
Its value is 46.90%.

What about the “Average (percent cell viability)” value (SARS-CoV-2 [3]; Case F: compound 1 h before infection (coinc 1 h), then virus 72 h, 0.1 uM) of the same compound?
The value was 10.1%.

What about the “Average (percent cell viability)” value (SARS-CoV-2 [3]; Case F: compound 1 h before infection (coinc 1 h), then virus 72 h, 1 uM) of the same compound?
Its value is 8.721%.

What about the “Average (percent cell viability)” value (SARS-CoV-2 [3]; Case F: compound 1 h before infection (coinc 1 h), then virus 72 h, 10 uM) of the same compound?
Its value is 19.4%.

And the “enhanced decrease of viral load” value (SARS-CoV-2 [2]; statin 0.1 μM + Dex 0.1 μM)?
The value was “—”.

What about the “enhanced decrease of viral load” value (SARS-CoV-2 [2]; statin 0.1 μM + Dex 1 μM) of the same compound?
Its value is “E”.

And the “enhanced decrease of viral load” value (SARS-CoV-2 [2]; statin 0.1 μM + Dex 10 μM)?
The value was “E”.

And the “enhanced decrease of viral load” value (SARS-CoV-2 [2]; statin 0.1 μM + Remde 1)?
Its value is “—”.

And the “enhanced decrease of viral load” value (SARS-CoV-2 [2]; statin 0.1 μM + Remde 10)?
Its value is “—”.

And the “enhanced decrease of viral load” value (SARS-CoV-2 [2]; statin 0.1 μM + Remde 100)?
Its value is “—”.

And the “enhanced decrease of viral load” value (SARS-CoV-2 [2]; statin 1 μM + Dex 0.1 μM)?
The value was “E”.

What about the “enhanced decrease of viral load” value (SARS-CoV-2 [2]; statin 1 μM + Dex 1 μM) of the same compound?
Its value is “E”.

And the “enhanced decrease of viral load” value (SARS-CoV-2 [2]; statin 1 μM + Dex 10 μM)?
Its value is “—”.

What about the “enhanced decrease of viral load” value (SARS-CoV-2 [2]; statin 1 μM + Remde 1) of the same compound?
The value was “—”.

And the “enhanced decrease of viral load” value (SARS-CoV-2 [2]; statin 1 μM + Remde 10)?
The value was “—”.

What about the “enhanced decrease of viral load” value (SARS-CoV-2 [2]; statin 1 μM + Remde 100) of the same compound?
Its value is “E”.

And the “enhanced decrease of viral load” value (SARS-CoV-2 [2]; statin 10 μM + Dex 0.1 μM)?
The value was “—”.

And the “enhanced decrease of viral load” value (SARS-CoV-2 [2]; statin 10 μM + Dex 1 μM)?
The value was “—”.

What about the “enhanced decrease of viral load” value (SARS-CoV-2 [2]; statin 10 μM + Dex 10 μM) of the same compound?
The value was “—”.

And the “enhanced decrease of viral load” value (SARS-CoV-2 [2]; statin 10 μM + Remde 1)?
Its value is “—”.

What about the “enhanced decrease of viral load” value (SARS-CoV-2 [2]; statin 10 μM + Remde 10) of the same compound?
The value was “—”.

And the “enhanced decrease of viral load” value (SARS-CoV-2 [2]; statin 10 μM + Remde 100)?
The value was “E”.

What about the “reduction in cholesterol content” value [4] of the same compound?
Its value is ≥ 50%.

For CCC(C)(C)C(=O)O[C@H]1C[C@@H](C)C=C2C=C[C@H](C)[C@H](CC[C@@H](O)C[C@@H](O)CC(=O)O)[C@H]21 [INS106, Simvastatin Hydroxy Acid, Ammonium Salt], which Kd ([1]; Table 2) is on record?
Its Kd is 1570 to 2600 nM.
